Data: US20240327359A1, “3-ISOXAZOLIDINONE COMPOUND, PREPARATION METHOD, HERBICIDAL COMPOSITION AND APPLICATION THEREOF” (QINGDAO KINGAGROOT CHEMICAL COMPOUND CO., LTD., priority 2021, published 2024)
Read-outs that look alike come from different tables or passages of the source.

Test system: weeds
Experiment: Activity test of the compositions, soil sealing treatment
Format: in vivo
Conditions: for pest or weed control at 3.75 g/ha: B 0.25 g a.i./mu; for pest or weed control at 480 g/ha: B 32 g a.i./mu; for pest or weed control at 90 g/ha: B 6 g a.i./mu
Protocol: The desired active ingredient B was purchased from a reagent company or synthesized by a known method. The technical materials were all dissolved in acetone and diluted with an aqueous solution containing 0.10% emulsifier Tween-80 which were to be used immediately after dilution.
Weeds are cultivated in a controllable sunlight greenhouse at 20 to 30° C., in natural light, and with relative humidity of 57% to 72%. […] The test soil was filled quantitatively to ¾ of the pots and then watered from the bottom of the pots to completely wet the soil to saturation. The test weed seeds were accelerated to just germinate, and then evenly and quantitatively sowed on the surface, then covered with 0.5-1 cm soil according to the seed size, and ready for use 72 hours after sowing.
Each treatment was repeated 4 times. Four pots with 20 weed seeds per pot were treated each time.
The well-sowed test materials were evenly placed on a platform with an area of 0.5 m^2, and solution of agents was sprayed on the soil by the 3WP-2000-type walking spray tower at a dosage of 450 kg/ha and at a spray pressure of 0.3 MPa. After all the solution was sprayed, the valve was closed. After 30 seconds, the door of the spray tower was opened, and the nutritional bowl was taken out. Then the valve was opened, and the spray tube was cleaned by spraying 50 ml of water.
A method for investigating absolute numbers was employed. Whole seedlings of survival weeds were cut off with a blade along the soil surface, and the fresh weight of the weeds was weighed with an analytical balance. For dead weeds, the fresh weight thereof was zero.
The investigation was performed 21 days after the treatment for only once in total.

[1] = Lolium multiflorum, soil (S), B 16 g a.i./mu, read-out: Control effect (%) of B applied alone (B)
[2] = Echinochloa crus-galli, Echinochloa crusgalli, soil (S), B 16 g a.i./mu, read-out: Control effect (%) of B applied alone (B)
[3] = Echinochloa crus-galli, Echinochloa crusgalli, soil (S), read-out: Control effect (%) of B applied alone (B)
[4] = Lolium multiflorum, soil (S), B 20 g a.i./mu, read-out: Control effect (%) of B applied alone (B)
[5] = Lolium multiflorum, soil (S), B 40 g a.i./mu, read-out: Control effect (%) of B applied alone (B)
[6] = Echinochloa crusgalli, soil (S), B 0.6 g a.i./mu
[7] = Echinochloa crusgalli, soil (S), B 1.2 g a.i./mu
[8] = Echinochloa crus-galli, Echinochloa crusgalli, soil (S), B 0.5 g a.i./mu, read-out: Control effect (%) of B applied alone (B)
[9] = Echinochloa crus-galli, Echinochloa crusgalli, soil (S), B 1 g a.i./mu, read-out: Control effect (%) of B applied alone (B)
[10] = Echinochloa crus-galli, Echinochloa crusgalli, soil (S), B 4 g a.i./mu, read-out: Control effect (%) of B applied alone (B)
[11] = Echinochloa crus-galli, Echinochloa crusgalli, soil (S), B 8 g a.i./mu, read-out: Control effect (%) of B applied alone (B)
[12] = Echinochloa crus-galli, soil, read-out: Control effect (%) of B applied alone (B)
[13] = Veronica didyma, soil (S), B 1 g a.i./mu
[14] = Veronica didyma, soil (S), B 2 g a.i./mu
[15] = Cyperus difformis, soil (S), B 0.5 g a.i./mu, read-out: Control effect (%) of B applied alone (B)
[16] = Echinochloa crus-galli, Echinochloa crusgalli, soil (S), B 2 g a.i./mu, read-out: Control effect (%) of B applied alone (B)
[17] = Lolium multiflorum, soil, read-out: Control effect (%) of B applied alone (B)

O=C(Nc1ccc(F)cc1)c1cccc(Oc2cccc(C(F)(F)F)c2)n1 [picolinafen]
Control effect (%) of B applied alone (B) (Galium aparine, soil (S), B 0.5 g a.i./mu): 40.8% | Control effect (%) of B applied alone (B) (Galium aparine, soil (S), B 1 g a.i./mu): 55.7%

CC(C)N(C)S(=O)(=O)NC(=O)c1cc(-n2c(=O)cc(C(F)(F)F)n(C)c2=O)c(F)cc1Cl [saflufenacil]
pest or weed control at 3.75 g/ha (Amaranthus retroflexus, soil (S), read-out: Control effect (%) of B applied alone (B)): 35.2% | pest or weed control at 7.5 g/ha (Amaranthus retroflexus, soil (S), B 0.5 g a.i./mu, read-out: Control effect (%) of B applied alone (B)): 43.8%

C#CCN1C(=O)C(F)(F)Oc2cc(F)c(-n3c(=O)n(C)c(=S)n(C)c3=O)cc21 [trifludimoxazin]
Control effect (%) of B applied alone (B) (Lolium multiflorum, soil (S), B 2 g a.i./mu): 31.5% | Control effect (%) of B applied alone (B) (Lolium multiflorum, soil (S), B 4 g a.i./mu): 42.6%

COCc1cnc(C2=NC(C)(C(C)C)C(=O)N2)c(C(=O)O)c1 (stereo not shown) [imazamox]
pest or weed control at 6 g/ha (Lolium multiflorum, soil (S), B 0.4 g a.i./mu, read-out: Control effect (%) of B applied alone (B)): 25.4% | pest or weed control at 12 g/ha (Lolium multiflorum, soil (S), B 0.8 g a.i./mu, read-out: Control effect (%) of B applied alone (B)): 42.7%

CN(C(=O)COc1nc2ccccc2s1)c1ccccc1 [mefenacet]
pest or weed control at 240 g/ha [1]: 18.5% | pest or weed control at 480 g/ha (Lolium multiflorum, soil (S), read-out: Control effect (%) of B applied alone (B)): 38.3%

O=C1C(Cl)C(CCl)CN1c1cccc(C(F)(F)F)c1 (stereo not shown) [flurochloridone]
pest or weed control at 60 g/ha (Veronica polita, Veronica didyma, soil (S), B 4 g a.i./mu, read-out: Control effect (%) of B applied alone (B)): 45.1% | pest or weed control at 120 g/ha (Veronica polita, Veronica didyma, soil (S), B 8 g a.i./mu, read-out: Control effect (%) of B applied alone (B)): 60.8%

CC(C)(NC(=O)C(Br)C(C)(C)C)c1ccccc1 (stereo not shown) [bromobutide]
pest or weed control at 240 g/ha [2]: 37.3% | pest or weed control at 480 g/ha [3]: 53.6%

CCNc1nc(Cl)nc(NC(C)C)n1 [atrazine]
pest or weed control at 300 g/ha [4]: 18.9% | pest or weed control at 600 g/ha [5]: 36.6%

Cc1cc(C)cc(OCC(C)Nc2nc(N)nc(C(C)(C)F)n2)c1 (stereo not shown) [triaziflam]
Control effect (%) of B applied alone (B) (Echinochloa crusgalli, soil treatment (S), B at 2 g a.i./mu, 21 days): 29.4% | Control effect (%) of B applied alone (B) (Echinochloa crusgalli, soil treatment (S), B at 4 g a.i./mu, 21 days): 40.5%

S-metolachlor
Control effect (%) of B applied alone (B) (Lolium multiflorum, soil (S), B 12 g a.i./mu): 32.1% | Control effect (%) of B applied alone (B) (Lolium multiflorum, soil (S), B 24 g a.i./mu): 53.6%

CC1=C(c2ccccc2)C(=O)N(C(C)(C)c2cc(Cl)cc(Cl)c2)CO1 [oxaziclomefone]
pest or weed control at 7.5 g/ha (Echinochloa crus-galli, 504 h, Echinochloa crusgalli, soil treatment (S), B at 0.5 g a.i./mu, 21 days, read-out: Control effect (%) of B applied alone (B)): 33.7% | pest or weed control at 15 g/ha (Echinochloa crus-galli, 504 h, Echinochloa crusgalli, soil treatment (S), B at 1 g a.i./mu, 21 days, read-out: Control effect (%) of B applied alone (B)): 51.2%

CCCc1ccc2nc(Cl)c(S(=O)(=O)NC(=O)Nc3nc(OC)cc(OC)n3)n2n1 [propyrisulfuron]
Control effect (%) of B applied alone (B) [6]: 22.6% | Control effect (%) of B applied alone (B) [7]: 37.5%

CCNc1nc(NC(C)(C)C)nc(SC)n1 [terbutryne]
Control effect (%) of B applied alone (B) (Alopecurus japonicus, soil (S), B 12 g a.i./mu): 32.4% | Control effect (%) of B applied alone (B) (Alopecurus japonicus, soil (S), B 24 g a.i./mu): 41.9%

COC(=O)[C@@H](C)O/N=C/c1cc(-n2c(=O)cc(C(F)(F)F)n(C)c2=O)c(F)cc1Cl
pest or weed control at 7.5 g/ha [8]: 31.5% | pest or weed control at 15 g/ha [9]: 42.3%

CCOCN(C(=O)CCl)c1c(C)cccc1CC [acetochlor]
pest or weed control at 180 g/ha (Lolium multiflorum, soil (S), B 12 g a.i./mu, read-out: Control effect (%) of B applied alone (B)): 36.5% | pest or weed control at 360 g/ha (Lolium multiflorum, soil (S), B 24 g a.i./mu, read-out: Control effect (%) of B applied alone (B)): 45.7%

Cc1nn(-c2cc(NS(C)(=O)=O)c(Cl)cc2Cl)c(=O)n1C(F)F [sulfentrazone]
pest or weed control at 60 g/ha [10]: 34.2% | pest or weed control at 120 g/ha [11]: 53.6%

CCN(CC)C(=O)C(C)Oc1cccc2ccccc12 (stereo not shown) [napropamide]
pest or weed control at 120 g/ha [12]: 30.1% | pest or weed control at 240 g/ha [12]: 42.3%

CCCOCCN(C(=O)CCl)c1c(CC)cccc1CC [pretilachlor]
pest or weed control at 120 g/ha (Lolium multiflorum, soil (S), B 8 g a.i./mu, read-out: Control effect (%) of B applied alone (B)): 23.4% | pest or weed control at 240 g/ha [1]: 50.9%

CCC(Oc1ccc(F)c(C(F)(F)F)c1)C(=O)NCc1ccccc1 (stereo not shown) [beflubutamid]
Control effect (%) of B applied alone (B) [13]: 42.6% | Control effect (%) of B applied alone (B) [14]: 57.9%

Cn1nc(C(F)(F)F)c(CS(=O)(=O)C2=NOC(C)(C)C2)c1OC(F)F [pyroxasulfone]
pest or weed control at 30 g/ha (Lolium multiflorum, soil (S), B 2 g a.i./mu, read-out: Control effect (%) of B applied alone (B)): 24.7% | pest or weed control at 60 g/ha (Lolium multiflorum, soil (S), B 4 g a.i./mu, read-out: Control effect (%) of B applied alone (B)): 49.2%

COC(=O)c1ccccc1CS(=O)(=O)NC(=O)Nc1nc(OC)cc(OC)n1 [bensulfuron-methyl]
pest or weed control at 7.5 g/ha [15]: 42.6% | pest or weed control at 15 g/ha (Cyperus difformis, soil (S), B 1 g a.i./mu, read-out: Control effect (%) of B applied alone (B)): 55.8%

COC(=O)C12ON=C(c3cc(-n4c(=O)cc(C(F)(F)F)n(C)c4=O)c(F)cc3Cl)C1CCC2C (stereo not shown)
pest or weed control at 15 g/ha [9]: 40.2% | pest or weed control at 30 g/ha [16]: 53.1%

COc1cc(OC)nc(NC(=O)NS(=O)(=O)c2c(C3=NOCC(C)O3)c(Cl)nn2C)n1 (stereo not shown) [metazosulfuron]
Control effect (%) of B applied alone (B) (Echinochloa crusgalli, soil (S), B 0.75 g a.i./mu): 32.4% | Control effect (%) of B applied alone (B) (Echinochloa crusgalli, soil (S), B 1.5 g a.i./mu): 41.6%

C#CCN1C(=O)COc2cc(F)c(N3C(=O)C4=C(CCCC4)C3=O)cc21 [flumioxazin]
pest or weed control at 7.5 g/ha [8]: 32.8% | pest or weed control at 15 g/ha [9]: 45.1%

CS(=O)(=O)c1cc(C(F)(F)F)ccc1C(=O)c1cnoc1C1CC1 [isoxaflutole]
pest or weed control at 15 g/ha [9]: 26.4% | pest or weed control at 30 g/ha [16]: 44.3%

CC(C)N(C(=O)COc1nnc(C(F)(F)F)s1)c1ccc(F)cc1 [flufenacet]
pest or weed control at 90 g/ha [3]: 29.8% | pest or weed control at 180 g/ha (Echinochloa crus-galli, Echinochloa crusgalli, soil (S), B 12 g a.i./mu, read-out: Control effect (%) of B applied alone (B)): 37.5%

CCNc1nc(NC(C)C)nc(SC)n1 [ametryne]
pest or weed control at 300 g/ha [17]: 18.1% | pest or weed control at 600 g/ha [17]: 31.6%

CC(C)Oc1cc(-n2nc(C(C)(C)C)oc2=O)c(Cl)cc1Cl [oxadiazon]
pest or weed control at 60 g/ha [10]: 37.2% | pest or weed control at 120 g/ha [11]: 51.9%

CS(=O)(=O)c1ccc(C(=O)C2C(=O)CCCC2=O)c(Cl)c1COCC1CCCO1 (stereo not shown) [tefuryltrione]
Control effect (%) of B applied alone (B) [6]: 28.4% | Control effect (%) of B applied alone (B) [7]: 49.7%

Nc1c([N+](=O)[O-])ccc(Oc2ccccc2)c1Cl [aclonifen]
pest or weed control at 300 g/ha [4]: 31.6% | pest or weed control at 600 g/ha [5]: 52.1%

fluridone
Control effect (%) of B applied alone (B) [13]: 37.2% | Control effect (%) of B applied alone (B) [14]: 50.4%

CCOc1ccccc1OS(=O)(=O)NC(=O)Nc1nc(OC)cc(OC)n1 [ethoxysulfuron]
pest or weed control at 3.75 g/ha (Cyperus difformis, soil (S), read-out: Control effect (%) of B applied alone (B)): 44.6% | pest or weed control at 7.5 g/ha [15]: 58.4%

C#CCN(C)c1c(C#N)cnn1-c1nn2c(c1Cl)CCCC2 [pyraclonil]
Control effect (%) of B applied alone (B) (Echinochloa crusgalli, soil (S), B 1 g a.i./mu): 22.5% | Control effect (%) of B applied alone (B) (Echinochloa crusgalli, soil (S), B 2 g a.i./mu): 43.6%

CCN(C(=O)n1nnn(-c2ccccc2Cl)c1=O)C1CCCCC1 [fentrazamide]
pest or weed control at 240 g/ha [2]: 32.5% | pest or weed control at 480 g/ha [3]: 50.8%

CSc1nc(NC(C)C)nc(NC(C)C)n1 [prometryne]
pest or weed control at 90 g/ha (Commelina communis, soil (S), read-out: Control effect (%) of B applied alone (B)): 30.5% | pest or weed control at 180 g/ha (Commelina communis, soil (S), B 12 g a.i./mu, read-out: Control effect (%) of B applied alone (B)): 41.7%
